Experimental data published in patent US9169241B2, “Quinolinyloxyphenylsulfonamides” (Max-Planck-Gesellschaft Zur Forderung der Wissenschaften …, priority 2009, dated 2015).
Like-named read-outs stand apart in the source and are kept apart here.

How the values were obtained:
viable cells in culture = assay: Cell viability assay at 10 μM (CellTiter-Glo, Table VII); assay type: cell-based; details: compound 10 μM, 72 h;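 also: graded A 0-20%; B 21-40%; C 41-60%; D over 60% viable cells relative to DMSO control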
Protocol: The CellTiter-Glo® Luminescent Cell Viability Assay (Promega Corporation. Madison, Wis., USA) is method a determining the number of viable cells in culture based on quantification of the ATP being present which is an indicator of metabolically active cells was used according to manufacturers protocol. In detail the assay was performed in a 96 well format were 1000 cells/well were incubated with compound at concentration 10 μM as well as DMSO control for 72 h in 100 μl cell culture medium. Percentage of inhibition was calculated compared to ATP amount of DMSO control.

indicated cell line = assay: Wound healing migration assay (Table IV); assay type: cell-based; details: compounds at 12.5, 6.25, 3.125 μM, 48 h-72 h
Protocol: This method mimics cell migration during wound healing in vivo. The basic steps involve creating a “wound” in a cell monolayer, capturing the images at the beginning and at regular intervals during cell migration to close the wound, and comparing the images to quantify the migration rate of the cells. In detail, 150000 cell/24 well have been seeded and allowed to form a monolayer overnight. Subsequently a “wound” or “scratch” has been performed with a 1000 μl pipette tip. The STDV of wound size is normally below 10% at time point t0. The assay was stopped by fixation with 0.05% Crystal violet/20% methanol when control scratches were closed. The assay was terminated between 48 h and 72 h depending on the migration potential of the indicated cell line. The “wounds” were visualized with a Zeiss Axiovert S100 microscope (Carl Zeiss UK, Welwyn Garden City, UK). The tested compounds were used at 12.5 μM, 6.25, 3.125 μM and DMSO control. IC50 values have been calculated as 50% wound size in between t0 and t48 or t72.

tumor cell = assay: Matrigel outgrowth assay/branching assay (Table Va); assay type: cell-based
Protocol: The Matrigel outgrowth assay is based on the ability of tumor cell to penetrate a solid gel of extracellular matrix proteins mimicking the metastasis formation in vivo. While cells with low invasive potential appear as roundish cell or cell cluster, cells with high invasive potential penetrate the Matrigel and form polymorphic structures. In detail 65 μl of Matrigel matrix (Matrigel™ Matrix, BD Biosciences, Bedford, Mass., USA) with a concentration of 3 mg/ml have been polymerized in 96 well plates for 1 h at 37° C. Subsequently 5000 cell/well were seeded into each well containing cell culture medium and indicated compound with concentrations of 3.125 μM, 1.56 μM and 0.78 μM as well as DMSO control. After 48 h, 72 h and 96 h images of cell were taken on an inverted microscope using a 5× objective (Zeiss Axiovert S100 microscope Carl Zeiss UK, Welwyn Garden City, UK). Only compound concentrations were total branching inhibition was evident were accounted as positive. Method was used as previously described, with some modifications (Thompson E W, et al. Association of increased basement membrane invasiveness with absence of estrogen receptor and expression of vimentin in human breast cancer cell lines. J Cell Physiol 1992; 150:534-44).

cells = assay: Boyden chamber migration assay (Table VI); assay type: cell-based; details: Homo sapiens, Hs-578T, 16 h, Hs578T cells; 16 h migration
Protocol: The Boyden chamber assay is based on a chamber of two medium-filled compartments separated by a microporous membrane of 8 μM (Cell culture insert 8.0 μM pore size, BD Biosciences, Bedford, Mass.). The boyden chamber migration assays were carried out according to the supplier's instructions. In general, 20000 cells are placed in the upper compartment with medium containing 0% FCS plus 0.1% BSA and are allowed to migrate 16 h through the pores of the membrane into the lower compartment, which is filled with cell culture medium containing 10% FCS as chemotactic agents. The cells remaining in the insert were removed with a cotton swab, and the cells on the bottom of the filter were fixed and counted. (Zhang Y X, et al. AXL is a potential target for therapeutic intervention in breast cancer progression. Cancer Res. 2008; 68:1905-15).

C8161 = assay: Apoptosis assay (Cellomics, nucleus condensation); assay type: cell-based; details: Homo sapiens, Table III, read-out: Apoptosis induction in C8161
Excerpt: (§1) The Cellomics BioApplication (Thermo Fischer Cellomics Products, Pittsburgh, Pa.) is an automated image analysis algorithm that provides detailed analysis of phenotypes related to apoptosis. As one of the most prominent characteristics of apoptotics cell a nucleus condensation takes place. This can be measured fluorescence signal intensity using a CCD camera on fully automated microscope system. The Cellomics system is able to quantify the fluorescence intensity per single nucleus and calculates the variation of signal intensity in each cell population. […] Additionally the number of detected cell decreases normally in apoptotic cell populations. In detail 5000 cell per 96 well were labeled with DNA intercalating dye (Hoechst 33342, Sigma, Steinheim, Germany) to visualize the nucleus in a fluorescence microscope under live conditions. The apoptosis assay was performed 24 h and 48 h after addition of compound at concentrations 12.5 μM, 6.25 μM, 3.125 μM, 1.56 μM, 0.78 μM, 0.39 μM as well as DMSO control for 48 h.

Hs578T [1] = assay: Apoptosis assay (Cellomics, nucleus condensation); assay type: cell-based; details: Homo sapiens, Hs-578T, Table III, read-out: Apoptosis induction in Hs578T
Excerpt: as §1

U138 = assay: Apoptosis assay (Cellomics, nucleus condensation); assay type: cell-based; details: Table III, read-out: Apoptosis induction in U138
Excerpt: as §1

SF126 = assay: Apoptosis assay (Cellomics, nucleus condensation); assay type: cell-based; details: Homo sapiens, SF-126, Table III, read-out: Apoptosis induction in SF126
Excerpt: as §1

SF763 = assay: Apoptosis assay (Cellomics, nucleus condensation); assay type: cell-based; details: Table III, read-out: Apoptosis induction in SF763
Excerpt: as §1

Hs578T [2] = assay: Matrigel outgrowth assay/branching assay; assay type: cell-based; details: Homo sapiens, Hs-578T; HS578T cell line; Table Ib; read-out: Total branching inhibition in Matrigel HS578T
Method in brief: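 Cells (5000/well) were seeded onto polymerized 3 mg/ml Matrigel with compound at 3.125, 1.56 or 0.78 μM versus DMSO. Branching was imaged by inverted microscopy (5× objective) at 48, 72 and 96 h. Only concentrations giving total branching inhibition scored positive.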

U118 = assay: Apoptosis assay (Cellomics, nucleus condensation); assay type: cell-based; details: Table III, read-out: Apoptosis induction in U118
Excerpt: as §1

[3] = Homo sapiens, HCT-116, HCT116 def, read-out: percentage (%) of viable cells HCT 116def
[4] = Homo sapiens, HCT-116, HCT116 wt, read-out: percentage (%) of viable cells HCT 116wt
[5] = Homo sapiens, HT-29, HT29, read-out: percentage (%) of viable cells HT29
[6] = Homo sapiens, NCI-H358, H358, read-out: percentage (%) of viable cells H358
[7] = Homo sapiens, NCI-H1650, H1650, read-out: percentage (%) of viable cells H1650
[8] = Homo sapiens, NCI-H1666, H1666, read-out: percentage (%) of viable cells H1666
[9] = Homo sapiens, NCI-H1975, H1975, read-out: percentage (%) of viable cells H1975
[10] = Homo sapiens, NCI-H1993, H1993, read-out: percentage (%) of viable cells H1993
[11] = Homo sapiens, A549, read-out: percentage (%) of viable cells A549
[12] = Homo sapiens, HCC827, read-out: percentage (%) of viable cells HCC827
[13] = Homo sapiens, SW480, read-out: percentage (%) of viable cells SW480
[14] = RKO, read-out: percentage (%) of viable cells RKO
[15] = Homo sapiens, C8161 cells, read-out: IC50 Wound healing Assay C8161
[16] = SF763 cells, read-out: IC50 Wound healing Assay SF763
[17] = Homo sapiens, C8161 cells, read-out: Total branching inhibition in Matrigel C8161
[18] = Homo sapiens, Hs-578T, Hs578T cells, read-out: Total branching inhibition in Matrigel Hs578T
[19] = U118 cells, read-out: Total branching inhibition in Matrigel U118
[20] = U138 cells, read-out: Total branching inhibition in Matrigel U138

IC50 (indicated cell line; [15]) [µM]	IC50 (indicated cell line; [16]) [µM]	IC50 (tumor cell; [17]) [µM]	IC50 (tumor cell; [18]) [µM]	IC50 (tumor cell; [19]) [µM]	IC50 (tumor cell; [20]) [µM]	IC50 (cells) [µM]	IC50 (C8161) [µM]	Structure (SMILES)	viability at 10 µM (viable cells in culture; [3]) [%]	viability at 10 µM (viable cells in culture; [4]) [%]	viability at 10 µM (viable cells in culture; [5]) [%]	viability at 10 µM (viable cells in culture; [6]) [%]	viability at 10 µM (viable cells in culture; [7]) [%]	viability at 10 µM (viable cells in culture; [8]) [%]	viability at 10 µM (viable cells in culture; [9]) [%]	viability at 10 µM (viable cells in culture; [10]) [%]	viability at 10 µM (viable cells in culture; [11]) [%]	viability at 10 µM (viable cells in culture; [12]) [%]	viability at 10 µM (viable cells in culture; [13]) [%]	viability at 10 µM (viable cells in culture; [14]) [%]	other results
12.5 to 50	≤ 12.5	≤ 5	≤ 5	≤ 5	≤ 5	≤ 5	≤ 12.5	COc1cc2c(Oc3ccc(NS(=O)(=O)c4ccccc4C#N)cc3F)ccnc2cc1OCCCN1CCN(C)CC1 [Example 15, 2-Cyano-N-(3-fluoro-4-{6-methoxy-7-[3-(4-methyl-piperazin-1-yl)-propoxy]-quinolin-4-yloxy}-phenyl)-benzenesulfonamide]	> 60	> 60	41 to 60	41 to 60	41 to 60	41 to 60	41 to 60	21 to 40	> 60	> 60	21 to 40	41 to 60	melting point: 109 to 111 °C; IC50 (Hs578T [1]): ≤ 12.5 µM; IC50 (U138): ≤ 12.5 µM; IC50 (SF126): ≤ 12.5 µM; IC50 (SF763): ≤ 12.5 µM; IC50 (Hs578T [2]): ≤ 10 µM
12.5 to 50	12.5 to 50	≤ 5	5 to 50	≤ 5	5 to 50	≤ 5	≤ 12.5	CCN(CC)CCCOc1cc2nccc(Oc3ccc(NS(=O)(=O)c4ccccc4C(F)(F)F)cc3F)c2cc1OC [Example 101, N-{4-[7-(3-Diethylamino-propoxy)-6-methoxy-quinolin-4-yloxy]-3-fluoro-phenyl}-2-trifluoromethyl-benzenesulfonamide]	21 to 40	21 to 40	0 to 20	0 to 20	41 to 60	41 to 60	41 to 60	21 to 40	41 to 60	21 to 40	0 to 20	0 to 20	IC50 (Hs578T [1]): ≤ 12.5 µM; IC50 (U138): ≤ 12.5 µM; IC50 (SF126): 12.5 to 50 µM; IC50 (SF763): ≤ 12.5 µM; IC50 (Hs578T [2]): 10 to 25 µM
≤ 12.5	≤ 12.5	≤ 5	≤ 5	≤ 5	5 to 50	≤ 5	12.5 to 50	COc1cc2c(Oc3ccc(NS(=O)(=O)c4cc(F)ccc4F)cc3F)ccnc2cc1OCC1CCCNC1 (centres unmarked) [Example 80, 2,5-Difluoro-N-{3-fluoro-4-[6-methoxy-7-(piperidin-3-ylmethoxy)-quinolin-4-yloxy]-phenyl}-benzenesulfonamide]	21 to 40	21 to 40	41 to 60	0 to 20	> 60	21 to 40	0 to 20	0 to 20	> 60	21 to 40	0 to 20	0 to 20	IC50 (Hs578T [1]): ≤ 12.5 µM; IC50 (U138): 12.5 to 50 µM; IC50 (SF126): 12.5 to 50 µM; IC50 (U118): ≤ 12.5 µM; IC50 (SF763): 12.5 to 50 µM
12.5 to 50	12.5 to 50	≤ 5	5 to 50	5 to 50	≤ 5	≤ 5	≤ 12.5	COc1cc2c(Oc3ccc(NS(=O)(=O)c4ccc(F)cc4F)cc3F)ccnc2cc1OCCCN1CCN(C)CC1 [Example 16, 2,4-Difluoro-N-(3-fluoro-4-{6-methoxy-7-[3-(4-methyl-piperazin-1-yl)-propoxy]-quinolin-4-yloxy}-phenyl)-benzenesulfonamide]	41 to 60	41 to 60	21 to 40	0 to 20	21 to 40	41 to 60	0 to 20	21 to 40	41 to 60	41 to 60	0 to 20	21 to 40	melting point: 99 to 102 °C; IC50 (Hs578T [1]): ≤ 12.5 µM; IC50 (U138): ≤ 12.5 µM; IC50 (SF126): ≤ 12.5 µM; IC50 (SF763): ≤ 12.5 µM
